How the values were obtained:
DDR1 = molecular target: T1, DDR1 (Homo sapiens, UniProt Q08345); assay: LanthaScreen Europium Kinase Binding assay, DDR1; conditions: 5 nM DDR1, 20 nM Kinase Tracer 178, 1 h at rt; Ki from IC50 by Cheng-Prusoff; read-out: Ki DDR1
T1 construct: purchased Carna Biosciences
Method: (§1) DDR1 and DDR2 binding assays were performed using Life Technologies LanthaScreen™ Europium Kinase Binding assay. […] IC50 values were determined in GraphPad Prism 7.0 software, using 4 parameter model: log (inhibitor) vs. response. IC50 values were converted in Ki using the Cheng-Prusoff equation (Ki-IC50/(1+ [Tracer]/Kd).

DDR2 = molecular target: T2, DDR2 (Homo sapiens, UniProt Q16832); assay: LanthaScreen Europium Kinase Binding assay, DDR2; conditions: 5 nM DDR2, 10 nM Kinase Tracer 178, 1 h at rt; Ki from IC50 by Cheng-Prusoff; read-out: Ki DDR2
T2 construct: purchased Life Technologies
T2 sequence (Q16832 22-855): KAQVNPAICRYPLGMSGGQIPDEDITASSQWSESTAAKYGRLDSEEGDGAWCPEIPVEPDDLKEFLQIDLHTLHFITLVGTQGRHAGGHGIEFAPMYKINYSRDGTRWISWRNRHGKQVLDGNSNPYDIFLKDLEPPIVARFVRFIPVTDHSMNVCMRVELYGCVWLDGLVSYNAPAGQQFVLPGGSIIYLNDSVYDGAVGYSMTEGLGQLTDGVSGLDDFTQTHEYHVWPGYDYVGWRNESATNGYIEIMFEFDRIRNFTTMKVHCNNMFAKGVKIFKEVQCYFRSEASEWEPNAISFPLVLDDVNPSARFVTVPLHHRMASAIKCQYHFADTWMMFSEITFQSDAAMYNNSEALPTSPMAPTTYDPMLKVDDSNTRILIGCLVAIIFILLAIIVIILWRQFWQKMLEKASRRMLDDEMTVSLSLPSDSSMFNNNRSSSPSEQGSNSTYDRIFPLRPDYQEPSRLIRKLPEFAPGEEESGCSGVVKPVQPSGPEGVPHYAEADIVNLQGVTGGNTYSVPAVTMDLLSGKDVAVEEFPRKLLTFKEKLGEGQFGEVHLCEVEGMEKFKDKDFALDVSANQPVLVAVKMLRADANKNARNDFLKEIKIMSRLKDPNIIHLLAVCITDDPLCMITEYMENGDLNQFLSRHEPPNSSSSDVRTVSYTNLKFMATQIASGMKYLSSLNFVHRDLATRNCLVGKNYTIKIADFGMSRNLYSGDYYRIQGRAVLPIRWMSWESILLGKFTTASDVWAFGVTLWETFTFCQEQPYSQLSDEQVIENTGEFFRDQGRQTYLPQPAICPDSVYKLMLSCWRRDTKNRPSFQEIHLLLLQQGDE
Method: as §1

T1 sequence (Q08345 19-913): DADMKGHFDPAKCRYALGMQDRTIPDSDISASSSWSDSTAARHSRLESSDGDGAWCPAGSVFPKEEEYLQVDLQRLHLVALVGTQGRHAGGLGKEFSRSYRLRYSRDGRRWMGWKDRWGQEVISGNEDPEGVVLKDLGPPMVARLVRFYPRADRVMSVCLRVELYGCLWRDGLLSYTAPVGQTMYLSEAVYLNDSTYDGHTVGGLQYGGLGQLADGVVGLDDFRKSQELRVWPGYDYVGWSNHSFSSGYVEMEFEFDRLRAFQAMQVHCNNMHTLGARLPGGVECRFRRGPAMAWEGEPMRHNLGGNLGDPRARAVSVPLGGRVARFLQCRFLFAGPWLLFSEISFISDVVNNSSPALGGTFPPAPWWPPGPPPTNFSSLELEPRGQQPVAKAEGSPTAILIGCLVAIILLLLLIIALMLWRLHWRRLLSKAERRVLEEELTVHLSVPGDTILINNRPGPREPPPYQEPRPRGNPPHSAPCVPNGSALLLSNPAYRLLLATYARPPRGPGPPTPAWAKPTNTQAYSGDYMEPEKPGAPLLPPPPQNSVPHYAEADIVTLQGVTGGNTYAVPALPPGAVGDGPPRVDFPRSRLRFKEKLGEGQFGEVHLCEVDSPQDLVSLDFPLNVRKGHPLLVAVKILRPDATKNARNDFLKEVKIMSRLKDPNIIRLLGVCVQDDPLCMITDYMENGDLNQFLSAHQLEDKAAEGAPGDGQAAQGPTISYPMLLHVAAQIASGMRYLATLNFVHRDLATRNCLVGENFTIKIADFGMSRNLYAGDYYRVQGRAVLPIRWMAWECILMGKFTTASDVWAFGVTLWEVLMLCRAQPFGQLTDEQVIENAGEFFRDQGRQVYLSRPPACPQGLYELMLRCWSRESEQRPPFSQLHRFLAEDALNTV

| Structure (SMILES) | Ki (DDR1) | Ki (DDR2) |
| --- | --- | --- |
| CN(C(=O)Nc1cc(OC(F)(F)F)ccn1)C1CC2(C1)CN(C(=O)c1ccnc3[nH]ncc13)C2 [Example 189, 1-(2-(1H-pyrazolo[3,4-b]pyridine-4-carbonyl)-2-azaspiro[3.3]heptan-6-yl)-1-methyl-3-(4-(trifluoromethoxy)pyridin-2-yl)urea] | 5 to 25 nM | 5 to 25 nM |
| CN(C(=O)Nc1cc(OC(F)(F)F)ccn1)C1CC2(C1)CN(C(=O)c1cnn3ccncc13)C2 [Example 190, 1-methyl-1-(2-(pyrazolo[1,5-a]pyrazine-3-carbonyl)-2-azaspiro[3.3]heptan-6-yl)-3-(4-(trifluoromethoxy)pyridin-2-yl)urea] | 5 to 25 nM | 25 to 100 nM |
| Cn1cc(N2CCOCC2)n2ncc(C(=O)N3CC4(CC(NC(=O)Nc5cccc(C(F)(F)F)c5)C4)C3)c12 [Example 192, 1-(2-(1-methyl-3-morpholino-1H-imidazo[1,2-b]pyrazole-7-carbonyl)-2-azaspiro[3.3]heptan-6-yl)-3-(3-(trifluoromethyl)phenyl)urea] | 25 to 100 nM | 25 to 100 nM |
| CN(C(=O)Nc1cc(C(C)(C)C(F)(F)F)on1)C1CC2(C1)CN(C(=O)c1cnn3ccn(C)c13)C2 [Example 199, 1-methyl-1-(2-(1-methyl-1H-imidazo[1,2-b]pyrazole-7-carbonyl)-2-azaspiro[3.3]heptan-6-yl)-3-(5-(1,1,1-trifluoro-2-methylpropan-2-yl)isoxazol-3-yl)urea] | < 5 nM | 5 to 25 nM |
| CN(C(=O)Nc1cc(Br)ccn1)C1CC2(C1)CN(C(=O)c1cnn3ccn(C)c13)C2 [Example 200, 3-(4-bromopyridin-2-yl)-1-methyl-1-(2-(1-methyl-1H-imidazo[1,2-b]pyrazole-7-carbonyl)-2-azaspiro[3.3]heptan-6-yl)urea] | < 5 nM | 5 to 25 nM |
| Cc1ccc(OC(F)(F)F)cc1NC(=O)N(C)C1CC2(C1)CN(C(=O)c1ncnc3[nH]ccc13)C2 [Example 201, 1-(2-(7H-pyrrolo[2,3-d]pyrimidine-4-carbonyl)-2-azaspiro[3.3]heptan-6-yl)-1-methyl-3-(2-methyl-5-(trifluoromethoxy)phenyl)urea] | < 5 nM | 5 to 25 nM |
| COCCn1ccn2ncc(C(=O)N3CC4(CC(N(C)C(=O)Nc5cc(OC(F)(F)F)ccn5)C4)C3)c12 [Example 202, 1-(2-(1-(2-methoxyethyl)-1H-imidazo[1,2-b]pyrazole-7-carbonyl)-2-azaspiro[3.3]heptan-6-yl)-1-methyl-3-(4-(trifluoromethoxy)pyridin-2-yl)urea] | < 5 nM | 25 to 100 nM |
| COCCn1ccn2ncc(C(=O)N3CC4(CC(N(C)C(=O)Nc5cccc(C(F)(F)F)c5)C4)C3)c12 [Example 203, 1-(2-(1-(2-methoxyethyl)-1H-imidazo[1,2-b]pyrazole-7-carbonyl)-2-azaspiro[3.3]heptan-6-yl)-1-methyl-3-(3-(trifluoromethyl)phenyl)urea] | < 5 nM | 5 to 25 nM |
| CN(C(=O)Nc1cncc(OC(F)(F)F)c1)C1CC2(C1)CN(C(=O)c1ncnc3[nH]ccc13)C2 [Example 204, 1-(2-(7H-pyrrolo[2,3-d]pyrimidine-4-carbonyl)-2-azaspiro[3.3]heptan-6-yl)-1-methyl-3-(5-(trifluoromethoxy)pyridin-3-yl)urea] | < 5 nM | 5 to 25 nM |
| CN(C(=O)Nc1cc(OC(F)(F)F)ccn1)C1CC2(C1)CN(C(=O)c1ncnc3[nH]ccc13)C2 [Example 205, 1-(2-(7H-pyrrolo[2,3-d]pyrimidine-4-carbonyl)-2-azaspiro[3.3]heptan-6-yl)-1-methyl-3-(4-(trifluoromethoxy)pyridin-2-yl)urea] | < 5 nM | 5 to 25 nM |
| CN(C(=O)Nc1cncc(C(F)(F)F)c1)C1CC2(C1)CN(C(=O)c1ncnc3[nH]ccc13)C2 [Example 206, 1-(2-(7H-pyrrolo[2,3-d]pyrimidine-4-carbonyl)-2-azaspiro[3.3]heptan-6-yl)-1-methyl-3-(5-(trifluoromethyl)pyridin-3-yl)urea] | < 5 nM | 5 to 25 nM |
| CN(C(=O)Nc1cncc(SC(F)(F)F)c1)C1CC2(C1)CN(C(=O)c1cnn3ccn(C)c13)C2 [Example 207, 1-methyl-1-(2-(1-methyl-1H-imidazo[1,2-b]pyrazole-7-carbonyl)-2-azaspiro[3.3]heptan-6-yl)-3-(5-((trifluoromethyl)thio)pyridin-3-yl)urea] | < 5 nM | 5 to 25 nM |
| CN(C(=O)Nc1cc(C(F)(F)F)cnn1)C1CC2(C1)CN(C(=O)c1cnn3ccn(C)c13)C2 [Example 208, 1-methyl-1-(2-(1-methyl-1H-imidazo[1,2-b]pyrazole-7-carbonyl)-2-azaspiro[3.3]heptan-6-yl)-3-(5-(trifluoromethyl)pyridazin-3-yl)urea] | 5 to 25 nM | 25 to 100 nM |
| CN(C(=O)Nc1cc(C(F)(F)F)ccn1)C1CC2(C1)CN(C(=O)c1cnn3ccn(CCO)c13)C2 [Example 209, 1-(2-(1-(2-hydroxyethyl)-1H-imidazo[1,2-b]pyrazole-7-carbonyl)-2-azaspiro[3.3]heptan-6-yl)-1-methyl-3-(4-(trifluoromethyl)pyridin-2-yl)urea] | < 5 nM | 5 to 25 nM |
| CN(C(=O)Nc1cccc(S(F)(F)(F)(F)F)c1)C1CC2(C1)CN(C(=O)c1cnn3ccn(CCO)c13)C2 [Example 210, 1-(2-(1-(2-hydroxyethyl)-1H-imidazo[1,2-b]pyrazole-7-carbonyl)-2-azaspiro[3.3]heptan-6-yl)-1-methyl-3-(3-(pentafluoro-16-sulfaneyl)phenyl)urea] | < 5 nM | < 5 nM |
| COc1c(CO)cc(OC(F)(F)F)cc1NC(=O)NC1CC2(C1)CN(C(=O)c1cnn3ccncc13)C2 [Example 212, 1-(3-(hydroxymethyl)-2-methoxy-5-(trifluoromethoxy)phenyl)-3-(2-(pyrazolo[1,5-a]pyrazine-3-carbonyl)-2-azaspiro[3.3]heptan-6-yl)urea] | 5 to 25 nM | 25 to 100 nM |

Other lines, results leading:

| Ki (DDR1) | Ki (DDR2) | Structure (SMILES) |
| --- | --- | --- |
| < 5 nM | 5 to 25 nM | CC1(NC(=O)Nc2cccc(C(F)(F)F)c2)CC2(CN(C(=O)c3ncnc4ccsc34)C2)C1 [Example 191] |
| < 5 nM | 5 to 25 nM | Cc1cc(C(F)(F)F)cc(NC(=O)N(C)C2CC3(C2)CN(C(=O)c2cnn4ccn(C)c24)C3)c1F [Example 193, 3-(2-fluoro-3-methyl-5-(trifluoromethyl)phenyl)-1-methyl-1-(2-(1-methyl-1H-imidazo[1,2-b]pyrazole-7-carbonyl)-2-azaspiro[3.3]heptan-6-yl)urea] |
| < 5 nM | 5 to 25 nM | CSCCn1ccn2ncc(C(=O)N3CC4(CC(NC(=O)Nc5cccc(C(F)(F)F)c5)C4)C3)c12 [Example 194, 1-(2-(1-(2-(methylthio)ethyl)-1H-imidazo[1,2-b]pyrazole-7-carbonyl)-2-azaspiro[3.3]heptan-6-yl)-3-(3-(trifluoromethyl)phenyl)urea] |
| < 5 nM | 5 to 25 nM | CN(C(=O)Nc1cccc(C(F)(F)F)c1)C1CC2(C1)CN(C(=O)c1cnn3ccn(CCF)c13)C2 [Example 195, 1-(2-(1-(2-fluoroethyl)-1H-imidazo[1,2-b]pyrazole-7-carbonyl)-2-azaspiro[3.3]heptan-6-yl)-1-methyl-3-(3-(trifluoromethyl)phenyl)urea] |
| < 5 nM | 5 to 25 nM | CSCn1ccn2ncc(C(=O)N3CC4(CC(NC(=O)Nc5cccc(C(F)(F)F)c5)C4)C3)c12 [Example 196, 1-(2-(1-((methylthio)methyl)-1H-imidazo[1,2-b]pyrazole-7-carbonyl)-2-azaspiro[3.3]heptan-6-yl)-3-(3-(trifluoromethyl)phenyl)urea] |
| < 5 nM | 5 to 25 nM | CN(C(=O)Nc1cncc(Br)c1)C1CC2(C1)CN(C(=O)c1cnn3ccn(C)c13)C2 [Example 197, 3-(5-bromopyridin-3-yl)-1-methyl-1-(2-(1-methyl-1H-imidazo[1,2-b]pyrazole-7-carbonyl)-2-azaspiro[3.3]heptan-6-yl)urea] |
| < 5 nM | < 5 nM | CN(C(=O)Nc1cccc(C2(C(F)(F)F)CC2)c1)C1CC2(C1)CN(C(=O)c1cnn3ccn(C)c13)C2 [Example 198, 1-methyl-1-(2-(1-methyl-1H-imidazo[1,2-b]pyrazole-7-carbonyl)-2-azaspiro[3.3]heptan-6-yl)-3-(3-(1-(trifluoromethyl)cyclopropyl)phenyl)urea] |
